Laboratory results published in ChEMBL document CHEMBL3621101 (Medchemcomm, 2014).

Test: physchem
Details: pH 7

| Structure (SMILES) | pKa |
| --- | --- |
| CN1CCCN(c2nc(NC3CCN(Cc4ccccc4)CC3)c3sccc3n2)CC1 | 5.68 |
| c1ccc(CN2CCC(Nc3nc(N4CCN(c5ccccn5)CC4)nc4cc5c(cc34)OCO5)CC2)cc1 | 8.08 |
| c1ccc(CN2CCC(Nc3nc(N4CCN(c5ccccn5)CC4)nc4ccsc34)CC2)cc1 | 6.88 |
| CN1CCN(c2nc(NC3CCN(Cc4ccccc4)CC3)c3occc3n2)CC1 | 4.66 |
| CN1CCCN(c2nc(NC3CCN(Cc4ccccc4)CC3)c3[nH]cnc3n2)CC1 | 3.15 |
| c1ccc(CN2CCC(Nc3nc(N4CCN(c5ccccn5)CC4)nc4ccoc34)CC2)cc1 | 5.77 |
| c1ccc(CN2CCC(Nc3nc(N4CCN(c5ccccn5)CC4)nc4ccccc34)CC2)cc1 | 8.03 |
| CN1CCN(c2nc(NC3CCN(Cc4ccccc4)CC3)c3sccc3n2)CC1 | 5.77 |
| CN1CCN(c2nc(NC3CCN(Cc4ccccc4)CC3)c3ccccc3n2)CC1 | 5.53 |
| CN1CCCN(c2nc3c(c(NC4CCN(Cc5ccccc5)CC4)n2)CCC3)CC1 | 6.62 |
| CN1CCN(c2nc(NC3CCN(Cc4ccccc4)CC3)c3ccsc3n2)CC1 | 3.35 |

Further lines, results first:

| pKa | Structure (SMILES) |
| --- | --- |
| 3.73 | c1ccc(CN2CCC(Nc3nc(N4CCCCC4)nc4nc[nH]c34)CC2)cc1 |
| 7.4 | c1ccc(CN2CCC(Nc3nc(N4CCCCC4)nc4ccccc34)CC2)cc1 |
| 7.45 | c1ccc(CN2CCC(Nc3nc(N4CCCCC4)nc4cc5c(cc34)OCO5)CC2)cc1 |
| 8.1 | COc1cc2nc(N3CCN(c4ccccn4)CC3)nc(NC3CCN(Cc4ccccc4)CC3)c2cc1OC |
| 9.84 | COc1cc2nc(N3CCN(C)CC3)cc(NC3CCN(Cc4ccccc4)CC3)c2cc1OC |
| 3.28 | CN1CCCN(c2nc(NC3CCN(Cc4ccccc4)CC3)c3ccsc3n2)CC1 |
| 5.31 | c1ccc(CN2CCC(Nc3nc(N4CCCCC4)nc4ccoc34)CC2)cc1 |
| 8.06 | CN1CCCN(c2nc(NC3CCN(Cc4ccccc4)CC3)c3ccccc3n2)CC1 |
| 6.42 | c1ccc(CN2CCC(Nc3nc(N4CCCCC4)nc4ccsc34)CC2)cc1 |
| 4.57 | CN1CCCN(c2nc(NC3CCN(Cc4ccccc4)CC3)c3occc3n2)CC1 |
| 8.13 | COc1cc2nc(N3CCCN(C)CC3)nc(NC3CCN(Cc4ccccc4)CC3)c2cc1OC |
| 10.6 | COc1cc2nc(N3CCCN(C)CC3)cc(NC3CCN(Cc4ccccc4)CC3)c2cc1OC |
| 5.58 | CN1CCN(c2nc(NC3CCN(Cc4ccccc4)CC3)c3cc4c(cc3n2)OCO4)CC1 |
| 7.47 | COc1cc2nc(N3CCCCC3)nc(NC3CCN(Cc4ccccc4)CC3)c2cc1OC |
| 3.86 | c1ccc(CN2CCC(Nc3nc(N4CCCCC4)nc4sccc34)CC2)cc1 |
| 5.6 | COc1cc2nc(N3CCN(C)CC3)nc(NC3CCN(Cc4ccccc4)CC3)c2cc1OC |
